This is an account of results in ChEMBL document CHEMBL5104096, “Undecaprenol kinase: Function, mechanism and substrate specificity of a potential antibiotic target” (Eur J Med Chem, 2021).

One experiment has as its system Streptococcus mutans. Description: Substrate activity at 6xHis-tagged Streptococcus mutans UdpK expressed in Escherichia coli BL-21(DE3) assessed as measuring ADP level in presence of ATP/NADH by PK/LDH coupled assay.
Details: not given
For the compound `C/C(=C/CO)CC/C=C(\C)CC/C=C(\C)CC/C=C(\C)CC/C=C(\C)CNS(=O)(=O)c1ccc(N=Nc2ccc(N(C)C)cc2)cc1`, the Activity was found to be 5.9 µmol/mg/min.
As to `CCCCCCCCCCCCCCCCO`, the Activity was found to be 1.9 µmol/mg/min.
Consider `CC(C)=CCC/C(C)=C/CC/C(C)=C/CC/C(C)=C\CC/C(C)=C\CC/C(C)=C\CC/C(C)=C\CO`, for which the Activity was 8.8 µmol/mg/min.
Consider `CC(C)=CCC/C(C)=C/CC/C(C)=C/CC/C(C)=C/CO`, for which the Activity is 9.3 µmol/mg/min.
As for `CC(C)=CCC/C(C)=C/CC/C(C)=C/CC/C(C)=C/CC/C(C)=C/CC/C(C)=C/CC/C(C)=C/CC/C(C)=C/CC/C(C)=C/CO`, the Activity was 4.9 µmol/mg/min.
Same read-out and setting: with `CC(C)=CCC/C(C)=C\CC/C(C)=C\CO` the figure was 21.2 µmol/mg/min; with `C/C(=C/CO)CC/C=C(/C)CC/C=C(\C)CC/C=C(\C)CC/C=C(\C)CNS(=O)(=O)c1ccc(N=Nc2ccc(N(C)C)cc2)cc1`, 4 µmol/mg/min; with `CCCCCCCCCCCCCCCCCCCCO`, 1.3 µmol/mg/min.
Turning to `CC(C)=CCC/C(C)=C/CC/C(C)=C/CO`, the Activity worked out at 11.5 µmol/mg/min.
As for `CC(C)=CCC/C(C)=C/CO`, the Activity came to 6.2 µmol/mg/min.
In the case of `CC(C)=CCC/C(C)=C/CC/C(C)=C/CC/C(C)=C\CC/C(C)=C\CC/C(C)=C\CC/C(C)=C\CC/C(C)=C\CO`, the Activity was determined as 3.8 µmol/mg/min.
Take `CCCCCCCCCCCO`: the Activity came to 2.1 µmol/mg/min.
Take `CC(C)=CCC/C(C)=C/CC/C(C)=C/CC/C(C)=C\CC/C(C)=C\CC/C(C)=C\CC/C(C)=C\CC/C(C)=C\CC/C(C)=C\CC/C(C)=C\CC/C(C)=C\CC/C(C)=C\CCC(C)CCO` (stereo unspecified): the Activity was found to be 4.5 µmol/mg/min.
As to `CC(C)=CCC/C(C)=C/CC/C(C)=C\CO`, the Activity stood at 5.4 µmol/mg/min.
Regarding `C/C(=C/CO)CC/C=C(/C)CC/C=C(/C)CC/C=C(\C)CC/C=C(\C)CNS(=O)(=O)c1ccc(N=Nc2ccc(N(C)C)cc2)cc1`, the Activity came to 4.1 µmol/mg/min.
Same read-out and setting: with `C/C(=C\CO)CCCC(C)CCCC(C)CCCC(C)C` (stereo unspecified) the figure was 5.6 µmol/mg/min; with `CC(C)=CCC/C(C)=C/CC/C(C)=C/CC/C(C)=C/CC/C(C)=C\CC/C(C)=C\CC/C(C)=C\CC/C(C)=C\CC/C(C)=C\CC/C(C)=C\CO`, 3.8 µmol/mg/min; with `C/C(=C\CO)CC/C=C(\C)CC/C=C(\C)CC/C=C(\C)CC/C=C(\C)CNS(=O)(=O)c1ccc(N=Nc2ccc(N(C)C)cc2)cc1`, 3.3 µmol/mg/min.

A further experiment deals with Streptococcus mutans. Kind of experiment: Substrate activity at wild-type Streptococcus mutans UdpK expressed in Escherichia coli C43(DE3) in presence of ATP/NADH by PK/LDH coupled assay.
Details: not given
For the compound `C/C(=C/CO)CC/C=C(/C)CC/C=C(/C)CC/C=C(/C)CC/C=C(/C)CC/C=C(/C)CC/C=C(/C)CC/C=C(\C)CC/C=C(\C)CC/C=C(\C)CCCNCc1ccc(C2(C(F)(F)F)N=N2)cc1`, the Activity was 5.1 µmol/mg/min.
For `C#CCNCCC/C(C)=C/CC/C(C)=C/CC/C(C)=C/CC/C(C)=C\CC/C(C)=C\CC/C(C)=C\CC/C(C)=C\CC/C(C)=C\CC/C(C)=C\CC/C(C)=C\CO`, the Activity was 7.1 µmol/mg/min.
The same measure, in the same setting: with `C/C(=C/CO)CC/C=C(/C)CC/C=C(/C)CC/C=C(/C)CC/C=C(/C)CC/C=C(/C)CC/C=C(/C)CC/C=C(\C)CC/C=C(\C)CC/C=C(\C)CCCNc1ccc([N+](=O)[O-])cc1` the figure was 9 µmol/mg/min; with `C/C(=C/CO)CC/C=C(/C)CC/C=C(/C)CC/C=C(/C)CC/C=C(/C)CC/C=C(/C)CC/C=C(/C)CC/C=C(\C)CC/C=C(\C)CC/C=C(\C)CCCNC1CC(C)(C)N([O])C(C)(C)C1`, 5.1 µmol/mg/min; with `C#Cc1cccc(NCCC/C(C)=C/CC/C(C)=C/CC/C(C)=C/CC/C(C)=C\CC/C(C)=C\CC/C(C)=C\CC/C(C)=C\CC/C(C)=C\CC/C(C)=C\CC/C(C)=C\CO)c1`, 9 µmol/mg/min.
Consider `C/C(=C/CO)CC/C=C(/C)CC/C=C(/C)CC/C=C(/C)CC/C=C(/C)CC/C=C(/C)CC/C=C(/C)CC/C=C(\C)CC/C=C(\C)CC/C=C(\C)CCCNc1ccccc1C(N)=O`, for which the Activity amounted to 6.9 µmol/mg/min.
With `C/C(=C/CO)CC/C=C(/C)CC/C=C(/C)CC/C=C(/C)CC/C=C(/C)CC/C=C(/C)CC/C=C(/C)CC/C=C(\C)CC/C=C(\C)CC/C=C(\C)CCCNc1cc2ccc3cccc4ccc(c1)c2c34`, the Activity came to 6.2 µmol/mg/min.
With `C/C(=C/CO)CC/C=C(/C)CC/C=C(/C)CC/C=C(/C)CC/C=C(/C)CC/C=C(/C)CC/C=C(/C)CC/C=C(\C)CC/C=C(\C)CC/C=C(\C)CCCN=[N+]=[N-]`, the Activity worked out at 10.8 µmol/mg/min.
Turning to `C/C(=C/CO)CC/C=C(/C)CC/C=C(/C)CC/C=C(/C)CC/C=C(/C)CC/C=C(/C)CC/C=C(/C)CC/C=C(\C)CC/C=C(\C)CC/C=C(\C)CCCNc1ccc(N=[N+]=[N-])cc1`, the Activity was 9.4 µmol/mg/min.
`C/C(=C/CC/C(C)=C\CC/C(C)=C\CC/C(C)=C\COC1CCCCO1)CC/C=C(/C)CC/C=C(/C)CC/C=C(/C)CC/C=C(\C)CC/C=C(\C)CC/C=C(\C)CCCO` (stereo unspecified): the Activity amounted to 3.4 µmol/mg/min.
Same read-out and setting: with `CC(=O)SCCC/C(C)=C/CC/C(C)=C/CC/C(C)=C/CC/C(C)=C\CC/C(C)=C\CC/C(C)=C\CC/C(C)=C\CC/C(C)=C\CC/C(C)=C\CC/C(C)=C\CO` the figure was 11.8 µmol/mg/min; with `C/C(=C/CO)CC/C=C(/C)CC/C=C(/C)CC/C=C(/C)CC/C=C(/C)CC/C=C(/C)CC/C=C(/C)CC/C=C(\C)CC/C=C(\C)CC/C=C(\C)CCC1OC1(C)C` (stereo unspecified), 8.1 µmol/mg/min.

Still in this experiment, the particulars now being: tested as the 2H-labelled form.
For the compound `CC(C)=CCC/C(C)=C/CC/C(C)=C/CC/C(C)=C/CC/C(C)=C\CC/C(C)=C\CC/C(C)=C\CC/C(C)=C\CC/C(C)=C\CC/C(C)=C\CC/C(C)=C\CO`, the Activity is 9.4 µmol/mg/min.
